System: dogs with MMVD and echocardiographic and radiographic evidence of cardiomegaly
Excerpt: Vertebral heart sum, another measure of heart size, was obtained at regular intervals—every eight months—from those animals that remained in the study. There are various ways in which this can be compared between groups. The most useful way to summarise and compare the average vertebral heart score in each group for the duration of the study is to generate an “area under the curve” value that represents a single summary statistic for each dog from which more than two measurements were obtained [Matthews J N et al., BMJ 1990, 300(6719): 230-235]. This method has been used previously in veterinary studies [Häggström J et al., J Vet Intern Med 2013, 27(6): 1441-1451].

## COc1ccc(-c2nc3ccc(C4=NNC(=O)CC4C)cc3[nH]2)cc1 (centres unmarked) [pimobendan, 4,5-dihydro-6-[2-(4-methoxyphenyl)-1H-benzimidazol-5-yl]-5-methyl-3(2H)-pyridazinone]
Average vertebral heart score over the duration of the study, placebo 11.90, P = 0.0009
  VHS Median: 11.54
Averaged over the entire duration of the study (area under the curve), dogs remaining in the study
  difference in median vertebral heart score vs placebo: approximately 0.35 vertebrae
dog, in vivo
  rate or type of potential adverse events observed: no difference between groups
  safety and tolerability: safe and well tolerated
Measured over the first 35 days of the study, P<0.0001
  heart size compared to the placebo group: reduction in heart size
